Results taken from patent publication US12459925B2, “Sulphonyl urea derivatives as NLRP3 inflammasome modulators” (priority 2017, dated 2025).

Test system: IL-1β release upon NLRP3 activation in peripheral blood mononuclear cells (PBMC)
Test: PBMC IC50 determination assay (IL-1β release, Protocol A ELISA / Protocol B HTRF)
Assay type: cell-based
Details: Homo sapiens, PBMC, read-out: Average PBMC IC50 (μM)
Experimental: The compounds of the present disclosure were tested for their inhibitory activity against IL-1β release upon NLRP3 activation in peripheral blood mononuclear cells (PBMC).
Isolated cells were seeded into the wells of a 96-well plate and incubated for 3 h with lipopolysaccharide (LPS). Following medium exchange, the compounds of the present disclosure were added (a single compound per well) and the cells were incubated for 30 min. Next, the cells were stimulated either with ATP (5 mM) or nigericin (10 μM) for 1 h and the cell culture media from the wells were collected for further analysis.
The release of IL1-β into the media was determined by a quantitative detection of IL-1β in the media using an IL-1β enzyme-linked immunosorbent assay (ELISA) Ready-SET-Go!, eBioscience cat. […] Subsequently, plates were blocked with blocking buffer for 1 h at room temperature (rt) and after washing with a buffer (PBS with 0.05% Tween-20) incubated with protein standard and culture media. […] Plates were washed and incubated with HRP-streptavidin for 30 min at rt and washed again. The signal was developed after addition of 3,3′,5,5′-tetramethylbenzidine-peroxidase (TMB) until colour appeared and the reaction was stopped by 2 M H2SO4. A microplate spectrophotometer (BioTek) was used to detect signals with 450 nm. The detection range of IL-1β ELISA was 2-150 ng/ml.
Isolated cells were seeded into the wells (280,000 cells/well) of a 96-well plate and incubated for 3 h with lipopolysaccharide (LPS, 1 μg/ml diluted 1000× from a 1 mg/ml stock solution). The compounds of the present disclosure were added (a single compound per well) and the cells were incubated for 30 min. Next, the cells were stimulated with ATP (5 mM final concentration diluted 20× from a 100 mM stock solution) for 1 h and the cell culture media from the wells were collected for further analysis.
The release of IL-1β into the media was determined by quantitative detection of IL-1β in the media using HTRF®, CisBio cat. No. 62HIL1BPEH. Briefly, cell culture supernatant were dispensed directly into the assay plate containing antibodies labelled with the HTRF® donor and acceptor. A microplate spectrophotometer (BMG) was used to detect signals at 655 nm and 620 nm. The detection range of IL-1β HTRF® was 39-6500 pg/ml.

| SMILES | IC50 [µM] |
| --- | --- |
| Cn1cc(N(C2CN3CCC2CC3)S(=O)(=O)NC(=O)Nc2c3c(cc4c2CCC4)CCC3)cn1 (stereo not drawn) [Compound 54] | < 1 |

Same assay, conditions: Homo sapiens; PBMC primed with LPS 3 h, compound 30 min, stimulated with ATP (5 mM) or nigericin (10 μM) 1 h; IL-1β in media; read-out: Average PBMC IC50

| SMILES | IC50 [µM] |
| --- | --- |
| CCc1cc(NC(=O)NS(=O)(=O)N(C[C@@H]2CCCN2C)c2cnn(C)c2)cc(C(F)(F)F)c1 [Compound 102] | < 1 |
| CN1CCC(N(c2cnn(C)c2)S(=O)(=O)NC(=O)Nc2c3c(cc4c2CCC4)CCC3)CC1C(F)(F)F (stereo not drawn) [Compound 60] | < 1 |
| O=C(Nc1c2c(cc3c1CCC3)CCC2)NS(=O)(=O)N(c1cnn(CC(F)(F)F)c1)C1CCOCC1 [Compound 26] | < 1 |
| CN1CCCC1CN(c1cnn(C)c1)S(=O)(=O)NC(=O)Nc1c2c(cc3c1CCC3)CCC2 (stereo not drawn) [Compound 68] | < 1 |
| CN1CCC(N(c2ccn(C)n2)S(=O)(=O)NC(=O)Nc2c3c(cc4c2CCC4)CCC3)CC1 [Compound 20] | < 1 |
| Cn1cc(N(C2CCCOC2)S(=O)(=O)NC(=O)Nc2c3c(cc4c2CCC4)CCC3)cn1 (stereo not drawn) [Compound 22] | < 1 |
| Cn1ccc(N(C2CCOCC2)S(=O)(=O)NC(=O)Nc2c3c(cc4c2CCC4)CCC3)c1 [Compound 95] | < 1 |
| Cc1cc(N(C2CCOCC2)S(=O)(=O)NC(=O)Nc2c3c(cc4c2CCC4)CCC3)sn1 [Compound 113] | < 1 |
| Cc1c(N(C2CCOCC2)S(=O)(=O)NC(=O)Nc2c3c(cc4c2CCC4)CCC3)cnn1C [Compound 10] | < 1 |
| CCc1cc(NC(=O)NS(=O)(=O)N(c2cnn(C)c2)C2CCOCC2)cc(C(F)(F)F)c1 [Compound 75] | < 1 |
| CCOc1cc(NC(=O)NS(=O)(=O)N(c2cnn(C)c2)C2CCOCC2)cc(OCC)c1 [Compound 90] | 10 to 50 |
| Cc1nn(C)cc1N(C1CCOCC1)S(=O)(=O)NC(=O)Nc1c2c(cc3c1CCC3)CCC2 [Compound 99] | < 1 |
| CN1CCCC(N(c2cnn(C)c2)S(=O)(=O)NC(=O)Nc2cc(Cl)cc(Cl)c2)C1 (stereo not drawn) [Compound 91] | < 1 |
| Cc1csc(N(C2CCOCC2)S(=O)(=O)NC(=O)Nc2c3c(cc4c2CCC4)CCC3)n1 [Compound 108] | < 1 |
| Cc1noc(N(C2CCOCC2)S(=O)(=O)NC(=O)Nc2c3c(cc4c2CCC4)CCC3)c1C [Compound 87] | < 1 |
| CC1CN(CCN(c2cnn(C)c2)S(=O)(=O)NC(=O)Nc2c3c(cc4c2CCC4)CCC3)C1 [Compound 74] | 3 to 10 |
| CC(C)N1CC(N(c2cnn(C)c2)S(=O)(=O)NC(=O)Nc2c3c(cc4c2CCC4)CCC3)C1 [Compound 64] | < 1 |
| CN1CCC(N(c2cnn(CC(F)F)c2)S(=O)(=O)NC(=O)Nc2c3c(cc4c2CCC4)CCC3)CC1 [Compound 36] | < 1 |
| CCc1cc(CC)cc(NC(=O)NS(=O)(=O)N(c2cnn(C)c2)C2CCN(C)CC2)c1 [Compound 53] | < 1 |
| Cc1cc(N(C2CCOCC2)S(=O)(=O)NC(=O)Nc2c3c(cc4c2CCC4)CCC3)on1 [Compound 18] | < 1 |
| CC1CCCC(C)C1NC(=O)NS(=O)(=O)N(c1cnn(C)c1)C1CCOCC1 (stereo not drawn) [Compound 88] | < 1 |

| SMILES | IC50 [µM] |
| --- | --- |
| O=C(Nc1c2c(cc3c1CCC3)CCC2)NS(=O)(=O)N(c1cnoc1)C1CCOCC1 [Compound 13] | < 1 |
| Cc1cc(N(C2CCOCC2)S(=O)(=O)NC(=O)Nc2c3c(cc4c2CCC4)CCC3)no1 [Compound 12] | 3 to 10 |
| Cn1cnc(N(C2CCOCC2)S(=O)(=O)NC(=O)Nc2c3c(cc4c2CCC4)CCC3)n1 [Compound 19] | 3 to 10 |
| CN1CCC(CN(c2cnn(C)c2)S(=O)(=O)NC(=O)Nc2c3c(cc4c2CCC4)CCC3)C1 (stereo not drawn) [Compound 57] | < 1 |
| Cc1nn(C)cc1N(C1CCCN(C)C1)S(=O)(=O)NC(=O)Nc1c2c(cc3c1CCC3)CCC2 (stereo not drawn) [Compound 103] | < 1 |
| CCc1cc(Cl)cc(NC(=O)NS(=O)(=O)N(c2cnn(C)c2)C2CCOCC2)c1 [Compound 77] | 1 to 3 |
| CCc1cc(NC(=O)NS(=O)(=O)N(C[C@H]2CCCN2C)c2cnn(C)c2)cc(C(F)(F)F)c1 [Compound 114] | < 1 |
| CN1CCC(N(c2cnn(C)c2)S(=O)(=O)NC(=O)Nc2c3c(cc4c2CCC4)CCC3)CC1=O (stereo not drawn) [Compound 47] | 1 to 3 |
| CCN1CCCC(N(c2cnn(C)c2)S(=O)(=O)NC(=O)Nc2c3c(cc4c2CCC4)CCC3)C1 (stereo not drawn) [Compound 62] | < 1 |
| O=C(Nc1c2c(cc3c1CCC3)CCC2)NS(=O)(=O)N(c1cnn(C(F)F)c1)C1CCOCC1 [Compound 25] | < 1 |
| CN1CCC(N(c2cnn(C)c2)S(=O)(=O)NC(=O)Nc2c3c(cc4c2CCC4)CCC3)C1 (stereo not drawn) [Compound 24] | < 1 |
| CC(C)c1cc(NC(=O)NS(=O)(=O)N(c2cnn(C)c2)C2CCOCC2)cc(C(C)C)c1 [Compound 73] | 1 to 3 |
| CN1CCC(N(c2cnn(CC#N)c2)S(=O)(=O)NC(=O)Nc2c3c(cc4c2CCC4)CCC3)CC1 [Compound 31] | < 1 |
| Cn1cc(N(C2CCOCC2)S(=O)(=O)NC(=O)Nc2cc(Cl)cc(OCC(F)(F)F)c2)cn1 [Compound 106] | < 1 |
| Cc1nn(C)c(C)c1N(C1CCOCC1)S(=O)(=O)NC(=O)Nc1c2c(cc3c1CCC3)CCC2 [Compound 11] | < 1 |
| CN1CC2(CC(N(c3cnn(C)c3)S(=O)(=O)NC(=O)Nc3c4c(cc5c3CCC5)CCC4)C2)C1 [Compound 58] | 10 to 50 |
| CN(C)CCn1cc(N(C2CCOCC2)S(=O)(=O)NC(=O)Nc2c3c(cc4c2CCC4)CCC3)cn1 [Compound 43] | < 1 |
| COc1cc(Cl)cc(NC(=O)NS(=O)(=O)N(c2cnn(C)c2)C2CCOCC2)c1 [Compound 93] | < 1 |
| C[C@@H]1CC(N(c2cnn(C)c2)S(=O)(=O)NC(=O)Nc2c3c(cc4c2CCC4)CCC3)CCO1 (stereo partly drawn) [Compound 85] | < 1 |
| CCc1cc(NC(=O)NS(=O)(=O)N(c2cnn(C)c2)C2CCOCC2)cc(CC)c1F [Compound 80] | 1 to 3 |
| N#CCn1cc(N(C2CCOCC2)S(=O)(=O)NC(=O)Nc2c3c(cc4c2CCC4)CCC3)cn1 [Compound 30] | < 1 |

| SMILES | IC50 [µM] |
| --- | --- |
| Cn1cc(N(C2CCN(CC(F)(F)F)CC2)S(=O)(=O)NC(=O)Nc2c3c(cc4c2CCC4)CCC3)cn1 [Compound 65] | 1 to 3 |
| CC(C)c1ncc(N(C2CCOCC2)S(=O)(=O)NC(=O)Nc2c3c(cc4c2CCC4)CCC3)cn1 [Compound 104] | < 1 |
| Cn1cc(N(C2CCN(CC(F)(F)F)C2)S(=O)(=O)NC(=O)Nc2c3c(cc4c2CCC4)CCC3)cn1 (stereo not drawn) [Compound 61] | < 1 |
| Cn1cc(N(C2CCOCC2)S(=O)(=O)NC(=O)Nc2c3c(cc4c2CCC4)CCC3)cn1 [Compound 1] | < 1 |
| COCn1cc(N(C2CCOCC2)S(=O)(=O)NC(=O)Nc2c3c(cc4c2CCC4)CCC3)cn1 [Compound 27] | < 1 |
| O=C(Nc1c2c(cc3c1CCC3)CCC2)NS(=O)(=O)N(c1cnn(C2COC2)c1)C1CCOCC1 [Compound 41] | < 1 |
| CN1CC(N(c2cnn(C)c2)S(=O)(=O)NC(=O)Nc2c3c(cc4c2CCC4)CCC3)CC1=O (stereo not drawn) [Compound 83] | 1 to 3 |
| Cc1c(N(C2CCN(C)CC2)S(=O)(=O)NC(=O)Nc2c3c(cc4c2CCC4)CCC3)cnn1C [Compound 14] | < 1 |
| CCn1cc(N(C2CCOCC2)S(=O)(=O)NC(=O)Nc2c3c(cc4c2CCC4)CCC3)cn1 [Compound 6] | < 1 |
| Cn1cc(N(C2CC3(C2)CN(CC(F)(F)F)C3)S(=O)(=O)NC(=O)Nc2c3c(cc4c2CCC4)CCC3)cn1 [Compound 69] | 3 to 10 |
| Cn1ncc(N(C2CCOCC2)S(=O)(=O)NC(=O)Nc2c3c(cc4c2CCC4)CCC3)n1 [Compound 96] | < 1 |
| Cc1ncc(N(C2CCOCC2)S(=O)(=O)NC(=O)Nc2c3c(cc4c2CCC4)CCC3)cn1 [Compound 86] | < 1 |
| CCC(C)c1cc(Cl)cc(NC(=O)NS(=O)(=O)N(c2cnn(C)c2)C2CCOCC2)c1 (stereo not drawn) [Compound 105] | < 1 |
| CN1CCC(N(c2cnn(C3COC3)c2)S(=O)(=O)NC(=O)Nc2c3c(cc4c2CCC4)CCC3)CC1 [Compound 42] | < 1 |
| CC(C)c1cc(Cl)cc(NC(=O)NS(=O)(=O)N(c2cnn(C)c2)C2CCCN(C)C2)c1 (stereo not drawn) [Compound 101] | < 1 |
| CN1CCCC(N(c2cnn(C)c2)S(=O)(=O)NC(=O)Nc2c3c(cc4c2CCC4)CCC3)CC1 (stereo not drawn) [Compound 67] | < 1 |
| CCn1cc(N(C2CCN(C)CC2)S(=O)(=O)NC(=O)Nc2c3c(cc4c2CCC4)CCC3)cn1 [Compound 7] | < 1 |
| CC(C)c1cc(NC(=O)NS(=O)(=O)N(c2cnn(C)c2)C2CCN(C)CC2)cc(C(C)C)c1 [Compound 49] | < 1 |
| CN1CCC[C@H]1CN(c1cnn(C)c1)S(=O)(=O)NC(=O)Nc1c2c(cc3c1CCC3)CCC2 [Compound 107] | < 1 |
| Cn1cc(N(C2CC3(COC3)C2)S(=O)(=O)NC(=O)Nc2c3c(cc4c2CCC4)CCC3)cn1 [Compound 66] | 1 to 3 |
